Where two headings read alike, the source gives them in different places.
Tests used:
Assay type in all cases: cell-based
[1] = system: HBeAg; experiment: HBeAg, HBV-infected HepaRG; conditions: Hepatitis B virus
[2] = system: pgRNA; experiment: pgRNA, HBV-infected HepaRG; conditions: Hepatitis B virus
Protocol: Following 4 day of maturation with 1 μM MB-1, HLC were incubated with HBV (purified from CHB individuals) at multiplicity of infection (MOI) 10-40 without PEG for 24 hr; virus inoculum was removed the following day. HBV infection in PHH was performed at MOI 40+4% PEG. Compound treatment in HLC and PHH was started at day 3 post infection. Compound (in powder) was dissolved in DMSO; the final concentration of DMSO added to cells is 1%. Fresh compound was replenished every 2 day until cells were harvested at day 10 (PHH), or day 14 (HLC). Compound effect on HBV and cellular toxicity was measured by multiplex assay (HBsAg, HBeAg, albumin), branched DNA (pgRNA), or digital PCR (cccDNA) and depicted as % of inhibition compared to DMSO control. Graphs were prepared using Spotfire software.
Levels of pgRNA in infected cells (96-well plate) were measured using QuantiGene Singleplex 2.0 assay (Affymetrix), a hybridization-based assay that utilizes the xMAP™ Luminex magnetic beads and branched DNA (bDNA) signal amplification technology. The assay is performed in 96-well plate according to manufacturer's recommendation. Briefly, cells were lysed and lysates were incubated with HBV probe sets panel at 50-55° C. for 30 min then stored at −80° C. Signal amplification is achieved via sequential hybridization of PreAmplifier, Amplifier, and Label Probe. After adding Streptavidin phycoerythrin (SAPE) substrate, the signal is read using a FlexMap 3D (Luminex) instrument.
Most of HBV in vitro studies, including evaluation of compound antiviral activity, are performed in hepatoma cell lines (HepaRG or HepG2-NTCP) infected with cell culture-derived HBV (e.g. HepG2.2.15-derived virus, GT D). As evaluation of cccDNA destabilizers was performed with patient-derived HBV GT D in PHH (see FIGS. 3F and 4A-4B), the inventors asked whether compound potency would be similar when tested against patient-derived HBV isolates from other GTs, or cell culture-derived virus (HepG2.2.15). To address the first question, PHH (in 384-well plate) were infected with four clinical HBV isolates (GT A-D, at MOI 40). At day 3 pi, cells were treated with compound 7, or DMSO, every other day until harvested and analysed at day 10 pi. Several observations are noteworthy. First, clinical HBV isolates across GTs varied in their replication capacity in PHH; as noted earlier in HLC (see FIG. 21) and also by others (Mabit et al., 1996; Sozzi et al, 2016). […] For each isolate, the amounts of secreted viral antigens are in close agreement with their cccDNA levels; thus, GT A isolate had the highest amount of cccDNA (˜11,000 copies/well), followed by GT C, B, and D (see FIG. 5B). […] Next, the inventors evaluated whether antiviral activity of compound 7 could be affected by the source of virus inoculum. […]

[3] = system: cccDNA; experiment: cccDNA (digital PCR), HBV-infected HepaRG; conditions: for IC50: Hepatitis B virus

Question: Which IC50 ([1]; read-out: HBeAg IC50 (μM) Median, HepaRG, HepG2.2.15-derived HBV GT D, MOI 40) does the source give for `O=C(NC(CO)CO)c1c[nH]c2ncc(C3CC3)nc12` [compound 7] here?
Answer: The IC50 was 6.11 µM.

Question: And the IC50 ([1]; read-out: HBeAg IC50 (μM) Median, HepaRG, HepG2.2.15-derived HBV GT D, MOI 125)?
Answer: The IC50 was 6.55 µM.

Question: And the IC50 ([1]; read-out: HBeAg IC50 (μM) Median, HepaRG, patient-derived HBV GT D, MOI 40)?
Answer: Its IC50 is 0.41 µM.

Question: What about the IC50 ([1]; read-out: HBeAg IC50 (μM) Median, HepaRG, patient-derived HBV GT D, MOI 125) of the same molecule?
Answer: Its IC50 is 0.52 µM.

Question: And the IC50 ([2]; HepG2.2.15-derived HBV GT D, MOI 40, read-out: pgRNA IC50 (μM) Median)?
Answer: The IC50 was 16.8 µM.

Question: And the IC50 ([2]; HepG2.2.15-derived HBV GT D, MOI 125, read-out: pgRNA IC50 (μM) Median)?
Answer: The IC50 was 26.6 µM.

Question: And the IC50 ([2]; patient-derived HBV GT D, MOI 40, read-out: pgRNA IC50 (μM) Median)?
Answer: Its IC50 is 1.93 µM.

Question: And the IC50 ([2]; patient-derived HBV GT D, MOI 125, read-out: pgRNA IC50 (μM) Median)?
Answer: The IC50 was 4.62 µM.

Question: What about the IC50 ([3]; HepG2.2.15-derived HBV GT D, MOI 40, read-out: cccDNA IC50 (μM) Median) of the same molecule?
Answer: The IC50 was 25.9 µM.

Question: What about the IC50 ([3]; HepG2.2.15-derived HBV GT D, MOI 125, read-out: cccDNA IC50 (μM) Median) of the same molecule?
Answer: The IC50 was 27.2 µM.

Question: And the IC50 ([3]; patient-derived HBV GT D, MOI 125, read-out: cccDNA IC50 (μM) Median)?
Answer: Its IC50 is 7.05 µM.

Question: And the “cccDNA IC50 (μM) Median” value ([3]; patient-derived HBV GT D, MOI 40)?
Answer: Its value is “below LLOQ”.

From US20230248723A1, “PYRROLO[2,3-B]PYRAZINE COMPOUNDS AS CCCDNA INHIBITORS FOR THE TREATMENT OF HEPATITIS B VIRUS (HBV) INFECTION” (Hoffmann-La Roche Inc., priority 2017, published 2023)
